The record followed here is the NIST ThermoML archive (doi:10.1021/acs.jced.7b01021).

± gives the expanded uncertainty stated by the source.

The conditions of the data set: Liquid, Ebulliometric method (Recirculating still).

For `Clc1ccccc1` [chlorobenzene], the vapor or sublimation pressure (commonly the pressure of vapour in equilibrium with the condensed phase) (404.8 K) was determined as 101.33 ± 0.71 kPa.
With `CC(C)(C)O` [2-methylpropan-2-ol], for the setting “355.59 K”, the “vapor or sublimation pressure” value was 101.33 ± 0.71 kPa.
For `CC(=O)OC(C)(C)C` [1,1-dimethylethyl ethanoate], the “vapor or sublimation pressure” value (371.05 K) came to 101.33 ± 0.71 kPa.
